According to ChEMBL document CHEMBL1133958, “Derivatives of (2R,3R,4S)-2-aminomethylpyrrolidine-3,4-diol are selective alpha-mannosidase inhibitors” (Bioorg Med Chem Lett, 2001):
pIC50, pKi: −log10 of the molar value. The source made the active and inactive calls. The rule behind the calls is not given here.

Tests used:
[1] = molecular target: T1, Beta-galactosidase (Bos taurus) (UniProt Q58D55); test: Percentage inhibition of Beta-galactosidase from Bovine liver at 1 mM concentration
T1 sequence (whole entry): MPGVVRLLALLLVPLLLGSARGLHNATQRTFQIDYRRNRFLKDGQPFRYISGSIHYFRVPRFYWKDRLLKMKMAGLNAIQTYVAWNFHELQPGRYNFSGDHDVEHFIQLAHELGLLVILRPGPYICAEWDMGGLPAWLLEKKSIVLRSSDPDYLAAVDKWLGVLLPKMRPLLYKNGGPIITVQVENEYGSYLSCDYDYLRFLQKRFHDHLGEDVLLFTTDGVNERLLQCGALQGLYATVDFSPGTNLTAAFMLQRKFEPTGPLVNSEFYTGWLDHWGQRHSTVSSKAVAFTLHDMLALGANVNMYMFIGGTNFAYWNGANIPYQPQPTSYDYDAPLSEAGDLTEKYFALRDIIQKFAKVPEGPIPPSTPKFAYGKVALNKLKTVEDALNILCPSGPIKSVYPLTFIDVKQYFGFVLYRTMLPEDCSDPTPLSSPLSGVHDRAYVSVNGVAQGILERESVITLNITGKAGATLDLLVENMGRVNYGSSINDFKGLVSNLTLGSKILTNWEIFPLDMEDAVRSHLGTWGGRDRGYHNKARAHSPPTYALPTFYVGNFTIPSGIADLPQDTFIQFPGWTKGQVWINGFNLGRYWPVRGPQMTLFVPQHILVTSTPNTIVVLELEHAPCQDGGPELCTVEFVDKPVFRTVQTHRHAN

[2] = molecular target: Glucoamylase (Aspergillus niger) (UniProt P69328); test: Percentage inhibition of Alpha-glucosidase from Aspergillus niger (amyloglucosidase) at 1 mM
[3] = molecular target: T2, Alpha-glucosidase (Oryza sativa Japonica Group) (UniProt Q9LGC6); test: Percentage inhibition of Alpha-glucosidase from Rice (maltase) at 1 mM; […]
T2 sequence (whole entry): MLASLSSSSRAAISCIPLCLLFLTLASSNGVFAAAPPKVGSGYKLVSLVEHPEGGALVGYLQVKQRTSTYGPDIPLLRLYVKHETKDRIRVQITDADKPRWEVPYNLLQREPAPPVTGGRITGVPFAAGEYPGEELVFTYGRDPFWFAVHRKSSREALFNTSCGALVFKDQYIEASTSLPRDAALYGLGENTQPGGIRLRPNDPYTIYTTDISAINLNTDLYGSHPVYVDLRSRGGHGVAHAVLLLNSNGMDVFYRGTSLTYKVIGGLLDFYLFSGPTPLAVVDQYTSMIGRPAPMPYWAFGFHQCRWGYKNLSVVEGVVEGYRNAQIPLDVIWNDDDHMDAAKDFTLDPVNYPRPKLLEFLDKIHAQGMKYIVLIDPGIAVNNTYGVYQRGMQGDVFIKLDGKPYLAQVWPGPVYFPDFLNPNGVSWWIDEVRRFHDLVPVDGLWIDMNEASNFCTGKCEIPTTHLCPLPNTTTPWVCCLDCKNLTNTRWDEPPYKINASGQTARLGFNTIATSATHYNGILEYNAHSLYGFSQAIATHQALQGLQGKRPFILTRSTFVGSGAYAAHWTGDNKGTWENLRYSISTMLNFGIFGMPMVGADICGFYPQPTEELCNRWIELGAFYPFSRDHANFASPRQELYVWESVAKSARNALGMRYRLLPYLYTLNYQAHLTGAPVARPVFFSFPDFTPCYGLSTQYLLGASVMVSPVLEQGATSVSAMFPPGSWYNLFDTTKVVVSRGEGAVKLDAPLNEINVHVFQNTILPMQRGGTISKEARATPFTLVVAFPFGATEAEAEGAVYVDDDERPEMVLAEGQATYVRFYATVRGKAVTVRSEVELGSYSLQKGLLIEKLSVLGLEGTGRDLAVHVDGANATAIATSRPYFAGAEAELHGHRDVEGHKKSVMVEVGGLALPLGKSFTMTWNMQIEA

[4] = molecular target: T3, Glucoamylase 1 (Rhizopus oryzae) (UniProt P07683); test: Percentage inhibition of Alpha-glucosidase from Rhizopus mold (amyloglucosidase) at 1 mM concentration; details: Rhizopus arrhizus
T3 sequence (whole entry): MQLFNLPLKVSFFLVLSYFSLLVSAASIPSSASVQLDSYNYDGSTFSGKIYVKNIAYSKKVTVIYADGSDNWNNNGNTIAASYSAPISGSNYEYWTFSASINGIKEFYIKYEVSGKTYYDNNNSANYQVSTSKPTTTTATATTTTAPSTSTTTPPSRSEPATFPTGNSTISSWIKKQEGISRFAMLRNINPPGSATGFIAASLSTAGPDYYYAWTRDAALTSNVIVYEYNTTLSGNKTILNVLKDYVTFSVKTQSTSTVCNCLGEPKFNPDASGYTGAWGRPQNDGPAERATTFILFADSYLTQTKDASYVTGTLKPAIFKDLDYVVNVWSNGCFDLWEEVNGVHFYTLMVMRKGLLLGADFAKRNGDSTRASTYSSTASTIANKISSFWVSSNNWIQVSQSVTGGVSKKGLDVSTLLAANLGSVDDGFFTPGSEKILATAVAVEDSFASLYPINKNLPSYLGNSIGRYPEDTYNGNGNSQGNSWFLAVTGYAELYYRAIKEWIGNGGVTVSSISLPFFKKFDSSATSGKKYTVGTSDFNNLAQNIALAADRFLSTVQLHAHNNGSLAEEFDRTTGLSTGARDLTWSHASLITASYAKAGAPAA

[5] = Inhibitory activity towards Beta-galactosidase from Aspergillus oryzae
[6] = molecular target: T4, Beta-galactosidase (Aspergillus niger) (UniProt P29853); test: Percentage inhibition of Beta-galactosidase from Aspergillus niger at 1 mM concentration
T4 sequence (whole entry): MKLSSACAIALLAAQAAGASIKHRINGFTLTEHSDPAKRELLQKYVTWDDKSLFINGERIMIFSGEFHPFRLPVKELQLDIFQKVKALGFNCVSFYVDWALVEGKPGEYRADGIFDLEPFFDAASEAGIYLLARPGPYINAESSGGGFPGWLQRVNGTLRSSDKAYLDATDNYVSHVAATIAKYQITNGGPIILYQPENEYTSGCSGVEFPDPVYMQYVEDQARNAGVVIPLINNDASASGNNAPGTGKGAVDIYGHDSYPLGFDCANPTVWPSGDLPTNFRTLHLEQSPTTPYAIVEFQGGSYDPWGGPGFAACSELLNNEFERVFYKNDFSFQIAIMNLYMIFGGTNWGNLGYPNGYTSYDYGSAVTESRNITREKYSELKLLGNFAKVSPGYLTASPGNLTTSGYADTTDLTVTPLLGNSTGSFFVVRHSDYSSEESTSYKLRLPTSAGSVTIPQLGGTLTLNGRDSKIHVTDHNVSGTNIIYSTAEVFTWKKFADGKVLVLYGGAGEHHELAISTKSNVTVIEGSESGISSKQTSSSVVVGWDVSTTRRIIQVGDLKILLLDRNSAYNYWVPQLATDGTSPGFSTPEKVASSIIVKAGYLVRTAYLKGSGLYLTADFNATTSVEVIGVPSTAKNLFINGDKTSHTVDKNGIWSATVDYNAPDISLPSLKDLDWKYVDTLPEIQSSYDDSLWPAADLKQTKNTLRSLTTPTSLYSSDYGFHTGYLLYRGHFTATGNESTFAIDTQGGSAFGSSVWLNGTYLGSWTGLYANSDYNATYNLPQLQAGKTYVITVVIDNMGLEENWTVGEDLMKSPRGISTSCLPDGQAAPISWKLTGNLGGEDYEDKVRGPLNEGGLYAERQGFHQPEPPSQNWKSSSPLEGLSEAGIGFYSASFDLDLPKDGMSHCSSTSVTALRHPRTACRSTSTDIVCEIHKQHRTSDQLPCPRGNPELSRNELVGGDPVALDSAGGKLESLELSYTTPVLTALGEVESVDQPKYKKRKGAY

Saccharomyces cerevisiae [7] = test: Percentage inhibition of Alpha-glucosidase from Yeast (maltase) at 1 mM; […]
[8] = Percentage inhibition of Beta-galactosidase from Aspergillus oryzae at 1 mM
Saccharomyces cerevisiae [9] = test: Percentage inhibition of Alpha-glucosidase from Baker yeast (isomaltase) at 1 mM
[10] = molecular target: Beta-galactosidase (Escherichia coli K-12) (UniProt P00722); test: Percentage inhibition of Beta-galactosidase from Escherichia coli at 1 mM concentration
[11] = molecular target: Beta-glucosidase A (Caldicellulosiruptor saccharolyticus) (UniProt P10482); test: Percentage inhibition of Beta-Glucosidase from Caldocellum saccharol. at 1 mM; No inhibition
[12] = molecular target: Beta-glucosidase A (Caldicellulosiruptor saccharolyticus) (UniProt P10482); test: Percentage inhibition of Beta-Glucosidase from Caldocellum saccharol. at 1 mM
[13] = molecular target: T2, Alpha-glucosidase (Oryza sativa Japonica Group); test: Percentage inhibition of Alpha-glucosidase from Rice (maltase) at 1 mM
[14] = molecular target: T3, Glucoamylase 1 (Rhizopus oryzae); test: Percentage inhibition of Alpha-glucosidase from Rhizopus mold (amyloglucosidase) at 1 mM concentration; No inhibition; details: Rhizopus arrhizus
[15] = molecular target: Glucoamylase (Aspergillus niger) (UniProt P69328); test: Percentage inhibition of Alpha-glucosidase from Aspergillus niger (amyloglucosidase) at 1 mM; No inhibition
[16] = Percentage inhibition of Beta-galactosidase from Jack bean at 1 mM concentration; details: Canavalia ensiformis
Saccharomyces cerevisiae [17] = test: Percentage inhibition of Alpha-glucosidase from Yeast (maltase) at 1 mM
[18] = system: Alpha-mannosidase (Prunus dulcis); test: Percentage inhibition of Alpha-mannosidase from Almond at 1 mM
[19] = molecular target: T1, Beta-galactosidase (Bos taurus); test: Percentage inhibition of Beta-galactosidase from Bovine liver at 1 mM; No inhibition
Beta-galactosidase [20] = molecular target: T5, Beta-galactosidase (Aspergillus niger, UniProt P29853); test: Inhibitory activity towards Beta-galactosidase from Aspergillus niger
T5 sequence (P29853 whole entry): T4 sequence (whole entry)

Beta-galactosidase [21] = molecular target: T6, Beta-galactosidase (Bos taurus, UniProt Q58D55); test: Inhibitory activity towards Beta-galactosidase from Bovine liver
T6 sequence (Q58D55 whole entry): T1 sequence (whole entry)

[22] = Percentage inhibition of Beta-galactosidase from Aspergillus oryzae at 1 mM; No inhibition
Beta-glucosidase A = Beta-glucosidase A (Caldicellulosiruptor saccharolyticus, UniProt P10482); test: Inhibitory activity towards Beta-Glucosidase from Caldocellum saccharol.
Chain of Beta-glucosidase A (P10482 whole entry): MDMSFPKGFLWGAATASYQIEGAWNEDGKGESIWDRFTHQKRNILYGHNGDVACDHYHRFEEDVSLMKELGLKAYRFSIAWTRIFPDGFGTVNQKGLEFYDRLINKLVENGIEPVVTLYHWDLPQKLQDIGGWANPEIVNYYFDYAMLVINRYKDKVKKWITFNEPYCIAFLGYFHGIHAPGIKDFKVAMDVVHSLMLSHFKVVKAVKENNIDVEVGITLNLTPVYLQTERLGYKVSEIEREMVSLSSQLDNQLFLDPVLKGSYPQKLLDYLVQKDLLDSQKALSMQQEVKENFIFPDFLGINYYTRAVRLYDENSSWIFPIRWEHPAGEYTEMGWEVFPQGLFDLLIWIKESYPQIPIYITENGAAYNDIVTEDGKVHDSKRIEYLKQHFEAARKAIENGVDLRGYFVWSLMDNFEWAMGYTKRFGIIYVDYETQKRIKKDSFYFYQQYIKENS

Chain of Beta-galactosidase (Escherichia coli K-12) (P00722 whole entry): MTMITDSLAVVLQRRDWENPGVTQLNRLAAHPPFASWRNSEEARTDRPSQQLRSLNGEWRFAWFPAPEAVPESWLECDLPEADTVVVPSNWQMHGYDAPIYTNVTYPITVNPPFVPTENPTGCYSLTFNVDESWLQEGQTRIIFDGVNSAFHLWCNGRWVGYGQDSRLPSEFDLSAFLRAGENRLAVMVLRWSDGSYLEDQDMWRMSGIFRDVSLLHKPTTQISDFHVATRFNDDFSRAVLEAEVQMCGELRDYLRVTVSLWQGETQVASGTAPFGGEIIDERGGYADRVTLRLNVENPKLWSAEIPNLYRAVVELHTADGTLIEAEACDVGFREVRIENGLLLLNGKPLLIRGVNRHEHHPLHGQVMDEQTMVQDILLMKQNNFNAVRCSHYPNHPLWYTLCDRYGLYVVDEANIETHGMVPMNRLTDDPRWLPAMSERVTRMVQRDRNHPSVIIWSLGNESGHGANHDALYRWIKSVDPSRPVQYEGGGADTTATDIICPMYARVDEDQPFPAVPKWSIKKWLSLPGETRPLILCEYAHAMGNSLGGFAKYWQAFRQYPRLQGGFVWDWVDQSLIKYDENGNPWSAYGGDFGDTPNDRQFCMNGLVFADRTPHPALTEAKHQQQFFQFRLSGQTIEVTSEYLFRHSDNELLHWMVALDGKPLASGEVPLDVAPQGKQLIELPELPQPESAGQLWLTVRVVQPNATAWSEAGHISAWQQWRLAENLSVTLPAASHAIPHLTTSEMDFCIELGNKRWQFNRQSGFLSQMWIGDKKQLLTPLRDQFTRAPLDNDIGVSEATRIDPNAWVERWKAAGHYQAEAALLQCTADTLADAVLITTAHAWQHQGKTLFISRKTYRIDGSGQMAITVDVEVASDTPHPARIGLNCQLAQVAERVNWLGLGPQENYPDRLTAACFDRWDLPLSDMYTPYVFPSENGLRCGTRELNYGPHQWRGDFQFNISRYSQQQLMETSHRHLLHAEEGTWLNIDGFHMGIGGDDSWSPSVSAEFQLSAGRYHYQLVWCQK
Chain of Beta-glucosidase A (Caldicellulosiruptor saccharolyticus) (P10482 whole entry): as the sequence (P10482 whole entry) above
Chain of Glucoamylase (Aspergillus niger) (P69328 whole entry): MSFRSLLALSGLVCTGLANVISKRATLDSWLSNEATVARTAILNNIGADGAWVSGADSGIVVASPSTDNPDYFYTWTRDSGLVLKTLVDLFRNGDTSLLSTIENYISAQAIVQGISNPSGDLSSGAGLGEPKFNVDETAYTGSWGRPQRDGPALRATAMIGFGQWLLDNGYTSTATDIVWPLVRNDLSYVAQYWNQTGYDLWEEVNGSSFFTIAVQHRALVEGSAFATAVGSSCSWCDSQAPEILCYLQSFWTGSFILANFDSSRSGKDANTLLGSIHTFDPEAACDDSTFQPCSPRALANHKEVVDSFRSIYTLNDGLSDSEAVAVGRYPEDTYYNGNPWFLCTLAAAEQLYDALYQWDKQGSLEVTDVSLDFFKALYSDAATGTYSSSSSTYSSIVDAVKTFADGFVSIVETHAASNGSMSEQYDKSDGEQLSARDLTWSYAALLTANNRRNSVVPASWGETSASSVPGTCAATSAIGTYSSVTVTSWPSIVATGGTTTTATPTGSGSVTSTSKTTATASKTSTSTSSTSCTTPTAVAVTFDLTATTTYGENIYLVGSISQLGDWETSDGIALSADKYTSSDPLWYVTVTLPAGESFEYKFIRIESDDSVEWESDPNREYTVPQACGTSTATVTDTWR

O[C@@H]1CNC[C@@H]1O
inhibition [1]: 25% | inhibition [2]: 24% | inhibition [3]: inactive | inhibition [4]: 47% | pIC50 [5]: 3.10 | inhibition [6]: 39% | inhibition (Saccharomyces cerevisiae [7]): inactive | inhibition [8]: 53% | inhibition (Saccharomyces cerevisiae [9]): 32% | inhibition [10]: 41% | inhibition [11]: inactive

NCC1NCC(O)C1O (stereo not given)
inhibition [12]: 93% | inhibition [13]: 98% | inhibition [14]: inactive | inhibition [15]: inactive | inhibition [6]: 24% | inhibition [8]: 60% | inhibition [16]: 76% | inhibition [10]: 92% | inhibition (Saccharomyces cerevisiae [17]): 84% | inhibition [18]: 51% | inhibition [19]: inactive

OC(O)CC1NCC(O)C1O (stereo not given)
inhibition [1]: 32% | inhibition [12]: 90% | inhibition [2]: 21% | inhibition [3]: inactive | pIC50 (Beta-galactosidase [20]): 3.85 | pKi (Beta-galactosidase [20]): 3.70 | inhibition [4]: 40% | pIC50 [5]: 4.12 | pKi [5]: 4.12 | inhibition [6]: 91% | inhibition (Saccharomyces cerevisiae [7]): inactive | inhibition [8]: 80% | inhibition (Saccharomyces cerevisiae [9]): 28% | inhibition [10]: 48%

CC(NCC1NCC(O)C1O)C(O)(c1ccccc1)c1ccccc1 (stereo not given)
pIC50 (Beta-galactosidase [21]): 3.85 | pKi (Beta-galactosidase [21]): 4.68 | inhibition [1]: 84% | inhibition [12]: 72% | inhibition [3]: inactive | inhibition [14]: inactive | inhibition [15]: inactive | inhibition [6]: 29% | inhibition (Saccharomyces cerevisiae [9]): 46% | inhibition [10]: 25% | inhibition (Saccharomyces cerevisiae [17]): 28% | inhibition [18]: 48% | inhibition [22]: inactive | pIC50 (Beta-glucosidase A): 3.49
